Data set [1] in a line: Inhibition of gamma secretase-mediated Abeta40 production.
A short description of data set [2]: nhibition of gamma secretase-mediated Abeta42 production by cell based assay.
Data set [3] can be described thus: nhibition of gamma secretase-mediated Abeta40 production by cell based assay.
The nature of data set [4]: Dissociation constant, pKa of the compound in DMSO. The format is physicochemical.

Consider 38 compounds from ChEMBL document CHEMBL1777803, “Synthesis and SAR study of tricyclic sulfones as γ-secretase inhibitors: C-6 and C-8 positions” (Bioorg Med Chem Lett, 2011).

`O=S(=O)(N[C@@H]1CC[C@@]2(S(=O)(=O)c3ccc(Cl)cc3)c3c(F)ccc(F)c3OC[C@H]2C1)C(F)(F)F`: it took 27 nM to reach half-maximal inhibition in data set [1] (IC50). Turning to `O=S(=O)(NCCO[C@]12CCCC[C@@]1(S(=O)(=O)c1ccc(Cl)cc1)c1c(F)ccc(F)c1OC2)C(F)(F)F`, the 50% inhibitory concentration (IC50) (commonly the concentration needed to halve the response being measured) in data set [1] came out at 295 nM. Same read-out and setting: the result for `CCSCCO[C@]12CCCC[C@@]1(S(=O)(=O)c1ccc(Cl)cc1)c1c(F)ccc(F)c1OC2` reads 170 nM.

In data set [1], `CCS(=O)(=O)CCO[C@]12CCCC[C@@]1(S(=O)(=O)c1ccc(Cl)cc1)c1c(F)ccc(F)c1OC2` displayed an IC50 of 15 nM.

Compound `CC(C)SCCO[C@]12CCCC[C@@]1(S(=O)(=O)c1ccc(Cl)cc1)c1c(F)ccc(F)c1OC2` displayed a half-inhibitory concentration (IC50) in data set [1] of 180 nM. The same measure, in the same setting: the result for `CC(C)S(=O)(=O)CCO[C@]12CCCC[C@@]1(S(=O)(=O)c1ccc(Cl)cc1)c1c(F)ccc(F)c1OC2` reads 8 nM. Still for that read-out and setting: the value for `CS(=O)(=O)CCO[C@]12CCCC[C@@]1(S(=O)(=O)c1ccc(Cl)cc1)c1c(F)ccc(F)c1OC2` was 9 nM; that for `CNS(=O)(=O)CCO[C@]12CCCC[C@@]1(S(=O)(=O)c1ccc(Cl)cc1)c1c(F)ccc(F)c1OC2` was 37 nM.

Consider `CN(C)S(=O)(=O)CCO[C@]12CCCC[C@@]1(S(=O)(=O)c1ccc(Cl)cc1)c1c(F)ccc(F)c1OC2`, for which, in data set [1], half-maximal inhibition (IC50) was put at 50 nM. Still for that read-out and setting: the result for `NCCO[C@]12CCCC[C@@]1(S(=O)(=O)c1ccc(Cl)cc1)c1c(F)ccc(F)c1OC2` reads 12 nM; that for `CNCCO[C@]12CCCC[C@@]1(S(=O)(=O)c1ccc(Cl)cc1)c1c(F)ccc(F)c1OC2`, 40 nM; that for `CN(C)CCO[C@]12CCCC[C@@]1(S(=O)(=O)c1ccc(Cl)cc1)c1c(F)ccc(F)c1OC2`, 31 nM. On the same count and under the same terms, the result for `CS(=O)(=O)NCCO[C@]12CCCC[C@@]1(S(=O)(=O)c1ccc(Cl)cc1)c1c(F)ccc(F)c1OC2` reads 26 nM; that for `O=S(=O)(c1ccc(Cl)cc1)[C@@]12CCC3(C[C@]1(O)COc1c(F)ccc(F)c12)OCCO3`, 2900 nM; that for `O=C1CC[C@@]2(S(=O)(=O)c3ccc(Cl)cc3)c3c(F)ccc(F)c3OC[C@@]2(O)C1`, 21 nM. Consider `O=S(=O)(N[C@@H]1CC[C@@]2(S(=O)(=O)c3ccc(Cl)cc3)c3c(F)ccc(F)c3OC[C@@]2(O)C1)C(F)(F)F`, for which the IC50 in data set [1] turned out to be 21 nM; in data set [2], 33 nM; in data set [3], 11 nM. In data set [1], `O=C1CC[C@@]2(S(=O)(=O)c3ccc(Cl)cc3)c3c(F)ccc(F)c3OC[C@]2(O)C1` displayed an IC50 of 3000 nM. Same read-out and setting: the value for `O=S(=O)(c1ccc(Cl)cc1)[C@@]12CC[C@H](O)C[C@]1(O)COc1c(F)ccc(F)c12` was 363 nM; that for `O=S(=O)(c1ccc(Cl)cc1)[C@@]12CC[C@@H](O)C[C@]1(O)COc1c(F)ccc(F)c12` was 28 nM; that for `O=C1CC[C@@]2(S(=O)(=O)c3ccc(C(F)(F)F)cc3)c3c(F)ccc(F)c3OC[C@@]2(O)C1` was 53 nM. The same measure, in the same setting: the value for `O=S(=O)(c1ccc(C(F)(F)F)cc1)[C@@]12CC[C@@H](O)C[C@]1(O)COc1c(F)ccc(F)c12` was 136 nM; that for `O=C1CC[C@@]2(S(=O)(=O)c3ccc(Cl)cc3)c3c(F)ccc(F)c3OC[C@H]2C1` was 13 nM; that for `O=S(=O)(c1ccc(Cl)cc1)[C@@]12CCCC[C@@H]1COc1c(F)ccc(F)c12` was 22 nM. As for `CCS(=O)(=O)CCO[C@@]12COc3c(F)ccc(F)c3[C@]1(S(=O)(=O)c1ccc(Cl)cc1)CCC1(C2)OCCO1`, inhibition in data set [1] was half-maximal at 1300 nM (IC50).

As to `CCS(=O)(=O)CCO[C@@]12COc3c(F)ccc(F)c3[C@]1(S(=O)(=O)c1ccc(Cl)cc1)CCC(=O)C2`, in data set [1], the IC50 came to 160 nM.

In the case of `CCS(=O)(=O)CCO[C@@]12COc3c(F)ccc(F)c3[C@]1(S(=O)(=O)c1ccc(Cl)cc1)CC[C@@H](O)C2`, the IC50 in data set [1] came out at 87 nM. Still for that read-out and setting: the result for `CC(C)S(=O)(=O)CCO[C@@]12COc3c(F)ccc(F)c3[C@]1(S(=O)(=O)c1ccc(Cl)cc1)CCC1(C2)OCCO1` reads 940 nM. Same read-out and setting: the result for `CC(C)S(=O)(=O)CCO[C@@]12COc3c(F)ccc(F)c3[C@]1(S(=O)(=O)c1ccc(Cl)cc1)CCC(=O)C2` reads 130 nM. Turning to `CC(C)S(=O)(=O)CCO[C@@]12COc3c(F)ccc(F)c3[C@]1(S(=O)(=O)c1ccc(Cl)cc1)CC[C@@H](O)C2`, the concentration for half-maximal inhibition (IC50) in data set [1] worked out at 52 nM. The same measure, in the same setting: the result for `O=S(=O)(N[C@@H]1CC[C@@]2(S(=O)(=O)c3ccc(Cl)cc3)c3c(F)ccc(F)c3OC[C@@]2(O)C1)C(F)F` reads 68 nM. For `O=S(=O)(CF)N[C@@H]1CC[C@@]2(S(=O)(=O)c3ccc(Cl)cc3)c3c(F)ccc(F)c3OC[C@@]2(O)C1`, inhibition in data set [1] was half-maximal at 164 nM (IC50). As for `O=S(=O)(N[C@@H]1CC[C@@]2(S(=O)(=O)c3ccc(Cl)cc3)c3c(F)ccc(F)c3OC[C@@]2(O)C1)C1CC1`, the IC50 is 29 nM in data set [1], 9 nM in data set [2] and 3 nM in data set [3]. In data set [1], `O=S(=O)(N[C@@H]1CC[C@@]2(S(=O)(=O)c3ccc(Cl)cc3)c3c(F)ccc(F)c3OC[C@@]2(O)C1)C1CCC1` showed an IC50 of 212 nM. For `O=S(=O)(N[C@@H]1CC[C@@]2(S(=O)(=O)c3ccc(C(F)(F)F)cc3)c3c(F)ccc(F)c3OC[C@@]2(O)C1)C(F)(F)F`, the values for the IC50 in data set [1], in data set [2] and in data set [3] were 23 nM, 51 nM and 80 nM, respectively. As to `O=S(=O)(N[C@@H]1CC[C@@]2(S(=O)(=O)c3ccc(C(F)(F)F)cc3)c3c(F)ccc(F)c3OC[C@@]2(O)C1)C1CC1`, the IC50 in data set [1] turned out to be 173 nM.

In data set [1], `O=S(=O)(NCCO[C@@]12COc3c(F)ccc(F)c3[C@]1(S(=O)(=O)c1ccc(Cl)cc1)CC[C@@H](O)C2)C(F)(F)F` gave an IC50 of 4100 nM. In data set [4], `CS(N)(=O)=O` [METHANESULFONAMIDE] registered a pKa of 17.5. As for `NS(=O)(=O)C(F)(F)F` [TRIFLUOROMETHANESULFONAMIDE], in data set [4] (DMSO, read-out: pKa), the pKa was 9.7.
